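Method: 48-hour compound exposure of cells in 96-well plates, five concentrations, linear interpolation of endpoints. The concentration for 50% growth inhibition is given as GI50. The concentration for full growth arrest is given as TGI.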 A value given as a limit tells only on which side of the number the result lay.

Common to all, as to test: NCI-60 cell line screen, 48 h
Assay [1] concerns SF-539 CNS.
Assay [2] relates to MDA-MB-435.
Assay [3] concerns HL-60(TB) leukemia.
Assay [4] has as its system UACC-62 melanoma.
The subject of assay [5] is A549 NSCLC.
The test system of assay [6] is SF-268 CNS.
In assay [7] the test system is NCI/ADR-RES ovarian.
Assay [8] has as its system U251 CNS.
Assay [9] has as its system OVCAR-4 ovarian.
The test system of assay [10] is SK-OV-3 ovarian.

For the compound `COc1ccc(C2C(C#N)=C(S)N(C3OC(CO)C(O)C(O)C3O)C(c3ccccc3)=C2C(C)=O)cc1` (centres undefined), the TGI in assay [1], in assay [2], in [3], in assay [4], in assay [5] and in assay [6] was > 100 µM in each case. Also, the TGI in assay [7] and in assay [8] was > 100 µM throughout.
Turning to `Cc1ccc(-c2n[nH]c(=O)[nH]2)cc1[N+](=O)[O-]`, the TGI in assay [1], in [2], in [3], in assay [9], in assay [4] and in assay [5] was > 100 µM each time. The TGI in [6], in [7] and in assay [8] was > 100 µM throughout.
As for `CN(C)CCCOCCn1c2c(c3ccccc31)CCCC2`, the TGI in assay [1] was 33.2 µM; in [2] it was 34.2 µM; in [3] it was 20.7 µM; in [9], 44.3 µM; in [4], 31.1 µM; in [5], 31.8 µM. Besides, the values for the TGI in assay [6], in assay [7] and in assay [8] were > 100 µM, 35.2 µM and 41.8 µM, respectively.
With `C[n+]1c2ccccc2c(C(=O)Nc2ccc(S(=O)(=O)N=C(N)N)cc2)c2ccccc21`, the TGI in assay [1], in [2], in [9], in assay [4], in assay [10] and in assay [5] was > 100 µM in each case. Moreover, the TGI in assay [6], in assay [7] and in [8] was > 100 µM each time.
For `COc1ccc2c(c1)/c(=C/c1ccc(N(C)C)cc1)c1cc(-c3ccccc3)[n+](C)n12`, the TGI in assay [2] was determined as 1.47 µM; in assay [9], 2.83 µM; in [4] it was 2.01 µM; in assay [10] it was 1.98 µM; in assay [5] it was 5.07 µM; in [6], 1.1 µM. The TGI in assay [7] was > 100 µM; in assay [8], 1.6 µM.
For `NCCCCNCCCNC(=O)c1nc(-c2csc(CCN)n2)sc1Cl`, the TGI in [1], in assay [3], in assay [9], in assay [4], in [10] and in assay [5] was > 100 µM in each case. The TGI in assay [6] and in assay [8] was > 100 µM throughout.
As for `COC(=O)[C@@]12CCCC(=O)[C@@H]1[C@H]1CCCC[C@H]12`, the TGI in assay [1], in [2], in assay [9], in assay [4], in assay [10] and in [5] was > 100 µM in each case. The TGI in assay [6], in [7] and in [8] was > 100 µM each time.
In the case of `CC(=O)O[C@H]1C(=O)[C@@]2(C)[C@H]([C@H](OC(=O)c3ccccc3)[C@]3(O)C[C@H](OC(=O)[C@H](O)[C@@H](NC(=O)CC(C)(C)C)c4ccccc4)C(C)=C1C3(C)C)C1(OC(C)=O)CO[C@@H]1C[C@@H]2O` (some centres undefined), the TGI in assay [1] is 0.00453 µM; in assay [9] it was > 10 µM; in assay [4], > 10 µM; in assay [10] it was > 10 µM; in assay [5], > 10 µM; in assay [6] it was > 6.19 µM. Also, in [7], the TGI is > 10 µM.
Regarding `CSc1c(C#N)c2n(c3ccccc13)c1ccccc1[n+]2C`, the TGI was 78.8 µM in [1]; 79.5 µM in [2]; 56.9 µM in assay [3]; > 100 µM in assay [9]; 47.1 µM in [4]; 81.8 µM in assay [5]. Besides, the results for the TGI in assay [6], in assay [7] and in assay [8] were > 100 µM, 68.4 µM and 73.7 µM, respectively.
`COc1ccc(C(=O)N2c3ccccc3Sc3ccccc32)c(C(F)(F)F)c1`: the GI50 in assay [1] is 0.271 µM; in assay [3] it was 0.252 µM; in assay [9], 1.98 µM; in [4] it was 0.438 µM; in assay [10], 0.794 µM; in assay [5], 0.515 µM. Further, the GI50 in [6] was 3.04 µM; in assay [7], 0.37 µM; in [8], 0.5 µM. Besides, the TGI is 0.995 µM in assay [1]; 0.793 µM in [3]; > 100 µM in [9]; > 100 µM in assay [4]; > 100 µM in assay [10]; > 100 µM in assay [5]. For the same compound, the TGI in assay [6], in assay [7] and in [8] was > 100 µM each time.
For `CN(Cc1cnc2nc(N)nc(N)c2n1)c1ccc(C(=O)NC(CCC(=O)NC(P(=O)(O)O)P(=O)(O)O)C(=O)O)cc1` (centres undefined), the TGI in assay [1], in [2], in assay [3], in assay [9], in assay [4] and in [5] was > 100 µM throughout. The TGI in assay [6], in [7] and in [8] was > 100 µM throughout.
On to `COc1c2cc(C(C)(C)C)cc1Cc1cccc(c1O)Cc1cc(C(C)(C)C)cc(c1OC)Cc1cccc(c1O)Cc1cc(C(C)(C)C)cc(c1OC)Cc1cccc(c1O)C2`, for which the TGI in assay [1], in assay [2], in assay [3], in assay [4], in [5] and in assay [6] was > 100 µM in each case. For the same compound, the TGI in assay [7] and in assay [8] was > 100 µM throughout.
`CC(=O)Oc1ccc(C2COc3cc(OC(C)=O)c(OC(C)=O)cc3C2)cc1` (centres undefined): the TGI was 40.2 µM in assay [1]; 20.3 µM in assay [3]; 29.1 µM in assay [9]; 24.2 µM in assay [4]; 38.7 µM in [10]; 57.3 µM in assay [5]. The TGI in assay [6] came to 51.6 µM; in assay [7], 48.7 µM; in [8], 60.4 µM.
Consider `Cc1ccc(C(=O)/C(C#N)=C/Nc2c(C)n(C)n(-c3ccccc3)c2=O)cc1`, for which the TGI in assay [1], in assay [2], in [3], in [9], in assay [4] and in [10] was > 100 µM each time. Also, the TGI in assay [5], in assay [6] and in assay [8] was > 100 µM each time.

These data come from PubChem BioAssay (NCI).
